Data on 18 compounds can be found in BindingDB's records for doi:10.1002/cbic.200400084 (Laboratorium FÜR Organische Chemie, 2004).

The IC50 is the concentration needed to halve the response being measured.

This test addresses T1, Catechol O-methyltransferase (Rattus norvegicus, UniProt P22734).
T1 sequence (P22734 whole entry): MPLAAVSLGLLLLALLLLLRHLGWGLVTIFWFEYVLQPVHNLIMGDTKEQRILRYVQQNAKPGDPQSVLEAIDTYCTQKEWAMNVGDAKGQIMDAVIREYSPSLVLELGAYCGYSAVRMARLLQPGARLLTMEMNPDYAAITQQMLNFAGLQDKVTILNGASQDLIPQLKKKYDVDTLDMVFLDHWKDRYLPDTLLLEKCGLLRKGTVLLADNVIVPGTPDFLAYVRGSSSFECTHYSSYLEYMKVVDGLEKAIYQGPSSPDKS
The test can be described thus: Radiochemical Assay. To be noted: 37 °C. The method, then: The binding affinity of the inhibitors towards Catechol O-methyltransferase in the presence of Mg2+ ions were determined by using a radiochemical assay.

`Nc1ncnc2c1ncn2[C@@H]1O[C@H](/C=C/CNC(=O)c2cc(C(=O)c3ccncc3)cc(O)c2O)[C@@H](O)[C@H]1O` [Bi-substrate Inhibitor, 1l] registered an IC50 of 42 nM.

Regarding `Nc1ncnc2c1ncn2[C@@H]1O[C@H](/C=C/CNC(=O)c2cc(C(F)(F)F)cc(O)c2O)[C@@H](O)[C@H]1O` [Bi-substrate Inhibitor, 1j], the IC50 amounted to 35 nM.

In turn, `Nc1ncnc2c1ncn2[C@@H]1O[C@H](/C=C/CNC(=O)c2cc(Br)cc(O)c2O)[C@@H](O)[C@H]1O` [Bi-substrate Inhibitor, 1f] came in with a 50% inhibitory concentration (IC50) of 28 nM.

For `Nc1ncnc2c1ncn2[C@@H]1O[C@H](/C=C/CNC(=O)c2cc(-c3nccs3)cc(O)c2O)[C@@H](O)[C@H]1O` [Bi-substrate Inhibitor, 1e], the IC50 came out at 27 nM.

Turning to `Nc1ncnc2c1ncn2[C@@H]1O[C@H](/C=C/CNC(=O)c2cc(Cl)cc(O)c2O)[C@@H](O)[C@H]1O` [Bi-substrate Inhibitor, 1m], the IC50 stood at 44 nM.

Consider `Nc1ncnc2c1ncn2[C@@H]1O[C@H](/C=C/CNC(=O)c2cccc(O)c2O)C(O)[C@H]1O` (stereo partly drawn) [Bi-substrate Inhibitor, 1t], for which the IC50 is 2600 nM.

In turn, `Nc1ncnc2c1ncn2[C@@H]1O[C@H](/C=C/CNC(=O)c2cc(-c3ccncc3)cc(O)c2O)[C@@H](O)[C@H]1O` [Bi-substrate Inhibitor, 1d] gave an IC50 of 23 nM.

For `N#Cc1cc(O)c(O)c(C(=O)NC/C=C/[C@H]2O[C@@H](n3cnc4c(N)ncnc43)[C@H](O)[C@@H]2O)c1` [Bi-substrate Inhibitor, 1h], it took 29 nM to reach half-maximal inhibition (IC50).

`Cc1ccc(-c2cc(O)c(O)c(C(=O)NC/C=C/[C@H]3O[C@@H](n4cnc5c(N)ncnc54)[C@H](O)[C@@H]3O)c2)cc1` [Bi-substrate Inhibitor, 1c]: 23 nM corresponded to half-maximal inhibition (IC50).

As for `Nc1ncnc2c1ncn2[C@@H]1O[C@H](/C=C/CNC(=O)c2cc(C(=O)C3CCCCC3)cc(O)c2O)[C@@H](O)[C@H]1O` [Bi-substrate Inhibitor, 1n], half-maximal inhibition (IC50) was put at 83 nM.

Turning to `CN(C)C(=O)/C=C/c1cc(O)c(O)c(C(=O)NC/C=C/[C@H]2O[C@@H](n3cnc4c(N)ncnc43)[C@H](O)[C@@H]2O)c1` [Bi-substrate Inhibitor, 1o], the IC50 amounted to 97 nM.

For the compound `Nc1ncnc2c1ncn2[C@@H]1O[C@H](/C=C/CNC(=O)c2cc([N+](=O)[O-])cc(O)c2O)[C@@H](O)[C@H]1O` [Bi-substrate Inhibitor, 1a], the IC50 came out at 9 nM.

`Nc1ncnc2c1ncn2[C@@H]1O[C@H](/C=C/CNC(=O)c2cc(-c3ccc(F)cc3)cc(O)c2O)[C@@H](O)[C@H]1O` [Bi-substrate Inhibitor, 1b] gave an IC50 of 21 nM.

The compound `CN(C)C(=O)c1cc(O)c(O)c(C(=O)NC/C=C/[C@H]2O[C@@H](n3cnc4c(N)ncnc43)[C@H](O)C2O)c1` (stereo partly drawn) [Bi-substrate Inhibitor, 1s] came in with an IC50 of 2000 nM.

With `Cc1ccc(Cc2cc(O)c(O)c(C(=O)NC/C=C/[C@H]3O[C@@H](n4cnc5c(N)ncnc54)[C@H](O)C3O)c2)cc1` (stereo partly drawn) [Bi-substrate Inhibitor, 1q], 608 nM corresponded to half-maximal inhibition (IC50).

Compound `Cc1ccc(S(=O)(=O)c2cc(O)c(O)c(C(=O)NC/C=C/[C@H]3O[C@@H](n4cnc5c(N)ncnc54)[C@H](O)C3O)c2)cc1` (stereo partly drawn) [Bi-substrate Inhibitor, 1p] registered an IC50 of 213 nM.

For `Nc1ncnc2c1ncn2[C@@H]1O[C@H](/C=C/CNC(=O)c2cc(C(=O)C(F)(F)F)cc(O)c2O)[C@@H](O)[C@H]1O` [Bi-substrate Inhibitor, 1k], it took 39 nM to reach half-maximal inhibition (IC50).

`Cc1ccc(C(=O)c2cc(O)c(O)c(C(=O)NC/C=C/[C@H]3O[C@@H](n4cnc5c(N)ncnc54)[C@H](O)[C@@H]3O)c2)cc1` [Bi-substrate Inhibitor, 1i]: the IC50 came to 34 nM.
